Source: article PMC10211317, “Identification of ARUK2002821 as an isoform-selective PI5P4Kα inhibitor” (RSC Medicinal Chemistry, 2023)

Key:
Assay in all cases: Premier Screen kinase panel (MRC PPU)
Format in all cases: biochemical
[1] = biological target: CHK2 (Homo sapiens, UniProt O96017); details: CHK2 (Entrez CHEK2), read-out: Residual activity (%)
Description: (§1) room temperature with shaking for 30 minutes. The kinase concentration in the eluates was measured by qPCR.
(§2) using ADP-GloTM assay at the MRC PPU International Centre for Kinase Profiling, University of Dundee.
(§3) Conducted by MRC PPU International Centre
(§4) Conducted by MRC PPU International Centre for […]

[2] = biological target: EIF2AK3 (Homo sapiens, UniProt Q9NZJ5); details: EIF2AK3 (Entrez EIF2AK3), read-out: Residual activity (%)
Chain of EIF2AK3 (Q9NZJ5 30-1116): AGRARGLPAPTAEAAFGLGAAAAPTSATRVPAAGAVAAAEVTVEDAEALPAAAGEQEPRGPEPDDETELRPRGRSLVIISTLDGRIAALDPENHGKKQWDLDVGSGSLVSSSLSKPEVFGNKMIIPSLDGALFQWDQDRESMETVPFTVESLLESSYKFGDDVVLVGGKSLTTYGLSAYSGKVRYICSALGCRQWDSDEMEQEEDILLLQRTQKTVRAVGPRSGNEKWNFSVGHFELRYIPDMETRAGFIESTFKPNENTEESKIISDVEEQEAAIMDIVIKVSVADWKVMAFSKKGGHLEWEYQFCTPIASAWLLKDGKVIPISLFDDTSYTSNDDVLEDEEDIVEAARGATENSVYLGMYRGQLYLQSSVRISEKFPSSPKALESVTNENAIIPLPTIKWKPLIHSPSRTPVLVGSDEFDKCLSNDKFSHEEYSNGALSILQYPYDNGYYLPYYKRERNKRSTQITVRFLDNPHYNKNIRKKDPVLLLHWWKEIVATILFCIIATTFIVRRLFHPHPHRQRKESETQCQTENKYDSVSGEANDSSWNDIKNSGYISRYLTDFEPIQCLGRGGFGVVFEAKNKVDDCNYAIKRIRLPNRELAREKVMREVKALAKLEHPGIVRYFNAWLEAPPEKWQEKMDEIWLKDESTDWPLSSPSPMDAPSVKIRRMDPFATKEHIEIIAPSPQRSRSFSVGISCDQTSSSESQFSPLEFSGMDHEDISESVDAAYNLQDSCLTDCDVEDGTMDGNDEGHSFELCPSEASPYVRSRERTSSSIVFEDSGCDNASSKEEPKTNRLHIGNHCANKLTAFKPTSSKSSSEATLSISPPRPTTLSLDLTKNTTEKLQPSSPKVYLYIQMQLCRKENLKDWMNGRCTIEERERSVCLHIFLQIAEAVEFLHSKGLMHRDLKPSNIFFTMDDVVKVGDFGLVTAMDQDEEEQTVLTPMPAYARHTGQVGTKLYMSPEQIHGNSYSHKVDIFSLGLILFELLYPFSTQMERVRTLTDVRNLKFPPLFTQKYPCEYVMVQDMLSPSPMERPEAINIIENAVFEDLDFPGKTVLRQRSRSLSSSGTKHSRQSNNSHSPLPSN
Description: as §1, §2, §3, §4

[3] = biological target: EPH-B1 (Homo sapiens, UniProt P54762); details: EPH-B1 (Entrez EPHB1), read-out: Residual activity (%)
Description: as §1, §2, §3, §4

[4] = biological target: EPH-B4 (Homo sapiens, UniProt P54760); details: EPH-B4 (Entrez EPHB4), read-out: Residual activity (%)
Chain of EPH-B4 (P54760 16-987): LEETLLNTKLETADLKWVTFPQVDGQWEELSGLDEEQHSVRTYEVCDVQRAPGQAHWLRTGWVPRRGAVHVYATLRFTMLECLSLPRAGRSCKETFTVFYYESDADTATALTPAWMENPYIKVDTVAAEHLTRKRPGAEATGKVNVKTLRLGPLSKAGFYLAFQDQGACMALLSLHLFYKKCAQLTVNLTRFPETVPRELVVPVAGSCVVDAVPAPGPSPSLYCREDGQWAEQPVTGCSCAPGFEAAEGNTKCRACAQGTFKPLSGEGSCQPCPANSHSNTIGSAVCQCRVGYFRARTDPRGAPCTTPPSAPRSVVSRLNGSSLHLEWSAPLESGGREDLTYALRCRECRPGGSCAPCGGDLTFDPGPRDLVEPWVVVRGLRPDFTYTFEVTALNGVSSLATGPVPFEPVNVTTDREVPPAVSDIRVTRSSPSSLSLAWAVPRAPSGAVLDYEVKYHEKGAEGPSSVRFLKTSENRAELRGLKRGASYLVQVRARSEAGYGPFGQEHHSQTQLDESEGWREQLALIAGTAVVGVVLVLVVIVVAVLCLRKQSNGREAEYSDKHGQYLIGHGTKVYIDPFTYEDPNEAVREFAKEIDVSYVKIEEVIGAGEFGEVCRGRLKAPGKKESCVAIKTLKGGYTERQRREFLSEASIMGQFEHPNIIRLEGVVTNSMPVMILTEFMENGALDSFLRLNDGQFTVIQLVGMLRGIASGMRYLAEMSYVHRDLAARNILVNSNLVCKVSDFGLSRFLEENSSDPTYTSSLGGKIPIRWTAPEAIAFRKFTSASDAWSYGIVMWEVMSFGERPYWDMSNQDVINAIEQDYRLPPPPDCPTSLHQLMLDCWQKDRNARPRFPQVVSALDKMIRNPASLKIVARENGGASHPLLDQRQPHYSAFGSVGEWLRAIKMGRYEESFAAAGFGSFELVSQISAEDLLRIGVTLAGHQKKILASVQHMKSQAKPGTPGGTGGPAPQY
Description: as §1, §2, §3, §4

[5] = biological target: ERK1 (Homo sapiens, UniProt P27361); details: ERK1 (Entrez MAPK3), read-out: Residual activity (%)
Chain of ERK1 (P27361 whole entry, species assumed): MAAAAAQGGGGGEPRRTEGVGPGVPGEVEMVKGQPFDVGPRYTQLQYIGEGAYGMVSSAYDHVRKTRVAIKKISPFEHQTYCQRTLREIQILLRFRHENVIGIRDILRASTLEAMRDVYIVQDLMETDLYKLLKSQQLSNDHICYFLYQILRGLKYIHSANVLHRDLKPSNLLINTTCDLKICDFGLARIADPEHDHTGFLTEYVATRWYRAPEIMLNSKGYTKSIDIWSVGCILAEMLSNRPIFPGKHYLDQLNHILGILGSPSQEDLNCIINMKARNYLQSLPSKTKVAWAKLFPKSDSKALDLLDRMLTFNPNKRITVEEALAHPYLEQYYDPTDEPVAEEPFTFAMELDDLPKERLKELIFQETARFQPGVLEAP
Description: as §1, §2, §3, §4

[6] = biological target: ERK5 (Homo sapiens, UniProt Q13164); details: ERK5 (Entrez MAPK7), read-out: Residual activity (%)
Description: as §1, §2, §3, §4

[7] = biological target: FGF-R1 (Homo sapiens, UniProt P11362); details: FGF-R1 (Entrez FGFR1), read-out: Residual activity (%)
Description: as §1, §2, §3, §4

[8] = biological target: JNK1 (Homo sapiens, UniProt P45983); details: JNK1 (Entrez MAPK8), read-out: Residual activity (%)
Description: as §1, §2, §3, §4

[9] = biological target: JNK2 (Homo sapiens, UniProt P45984); details: JNK2 (Entrez MAPK9), read-out: Residual activity (%)
Description: as §1, §2, §3, §4

[10] = biological target: JNK3 (Homo sapiens, UniProt P53779); details: JNK3 (Entrez MAPK10), read-out: Residual activity (%)
Description: as §1, §2, §3, §4

[11] = biological target: LKB1 (Homo sapiens, UniProt Q15831); details: LKB1 (Entrez STK11), read-out: Residual activity (%)
Description: as §1, §2, §3, §4

[12] = biological target: MARK1 (Homo sapiens, UniProt Q9P0L2); details: MARK1 (Entrez MARK1), read-out: Residual activity (%)
Description: as §1, §2, §3, §4

[13] = biological target: MARK4 (Homo sapiens, UniProt Q96L34); details: MARK4 (Entrez MARK4), read-out: Residual activity (%)
Description: as §1, §2, §3, §4

[14] = biological target: MEKK1 (Homo sapiens, UniProt Q13233); details: MEKK1 (Entrez MAP3K1), read-out: Residual activity (%)
Description: as §1, §2, §3, §4

[15] = biological target: MINK1 (Homo sapiens, UniProt Q8N4C8); details: MINK1 (Entrez MINK1), read-out: Residual activity (%)
Chain of MINK1 (Q8N4C8 whole entry): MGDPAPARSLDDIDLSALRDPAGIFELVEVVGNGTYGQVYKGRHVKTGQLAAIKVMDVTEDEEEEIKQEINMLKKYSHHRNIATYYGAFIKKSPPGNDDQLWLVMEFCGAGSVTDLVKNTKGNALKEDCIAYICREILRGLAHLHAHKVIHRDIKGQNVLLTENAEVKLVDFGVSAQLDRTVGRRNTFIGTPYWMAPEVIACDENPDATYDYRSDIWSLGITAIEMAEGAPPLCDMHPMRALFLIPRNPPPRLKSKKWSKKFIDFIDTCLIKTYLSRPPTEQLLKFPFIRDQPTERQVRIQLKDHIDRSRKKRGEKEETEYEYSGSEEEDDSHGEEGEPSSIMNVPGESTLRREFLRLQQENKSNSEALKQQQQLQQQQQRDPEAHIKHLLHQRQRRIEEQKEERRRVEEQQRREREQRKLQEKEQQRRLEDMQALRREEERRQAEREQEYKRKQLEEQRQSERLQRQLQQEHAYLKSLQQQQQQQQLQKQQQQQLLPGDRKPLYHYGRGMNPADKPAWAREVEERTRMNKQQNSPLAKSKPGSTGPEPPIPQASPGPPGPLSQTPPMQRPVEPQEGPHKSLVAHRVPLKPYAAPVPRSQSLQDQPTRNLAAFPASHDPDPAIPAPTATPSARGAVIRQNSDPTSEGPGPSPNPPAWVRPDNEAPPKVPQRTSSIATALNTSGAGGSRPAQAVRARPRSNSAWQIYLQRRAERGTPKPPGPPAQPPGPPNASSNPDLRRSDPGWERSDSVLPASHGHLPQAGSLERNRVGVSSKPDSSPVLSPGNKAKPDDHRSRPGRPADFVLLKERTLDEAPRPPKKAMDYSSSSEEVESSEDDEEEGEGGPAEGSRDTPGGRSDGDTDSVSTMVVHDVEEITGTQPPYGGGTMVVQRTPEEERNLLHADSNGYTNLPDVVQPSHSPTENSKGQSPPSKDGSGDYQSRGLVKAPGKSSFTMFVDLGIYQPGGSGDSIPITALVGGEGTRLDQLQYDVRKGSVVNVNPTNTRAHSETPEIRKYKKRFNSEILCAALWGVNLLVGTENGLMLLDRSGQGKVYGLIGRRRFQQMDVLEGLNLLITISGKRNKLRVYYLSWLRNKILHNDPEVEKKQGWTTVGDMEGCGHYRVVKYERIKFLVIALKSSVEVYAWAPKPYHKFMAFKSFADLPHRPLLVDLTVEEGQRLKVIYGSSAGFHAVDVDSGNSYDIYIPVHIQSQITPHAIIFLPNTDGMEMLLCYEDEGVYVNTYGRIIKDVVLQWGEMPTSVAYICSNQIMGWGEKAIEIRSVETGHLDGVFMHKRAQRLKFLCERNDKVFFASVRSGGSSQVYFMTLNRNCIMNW
Description: as §1, §2, §3, §4

[16] = biological target: MKK1 (Homo sapiens, UniProt Q02750); details: MKK1 (Entrez MAP2K1), read-out: Residual activity (%)
Description: as §1, §2, §3, §4

[17] = biological target: MKK2 (Homo sapiens, UniProt P36507); details: MKK2 (Entrez MAP2K2), read-out: Residual activity (%)
Description: as §1, §2, §3, §4

[18] = biological target: MNK1 (Homo sapiens, UniProt Q9BUB5); details: MNK1 (Entrez MKNK1), read-out: Residual activity (%)
Description: as §1, §2, §3, §4

[19] = biological target: MPSK1 (Homo sapiens, UniProt O75716); details: MPSK1 (Entrez STK16), read-out: Residual activity (%)
Description: as §1, §2, §3, §4

[20] = biological target: MSK1 (Homo sapiens, UniProt O75582); details: MSK1 (Entrez RPS6KA5), read-out: Residual activity (%)
Description: as §1, §2, §3, §4

[21] = biological target: PAK2 (Homo sapiens, UniProt Q13177); details: PAK2 (Entrez PAK2), read-out: Residual activity (%)
Description: as §1, §2, §3, §4

[22] = biological target: PKA (Homo sapiens, UniProt P17612); details: PKA (Entrez PRKAC), read-out: Residual activity (%)
Description: as §1, §2, §3, §4

[23] = biological target: PKBb (Homo sapiens, UniProt P31751); details: PKBb (Entrez AKT2), read-out: Residual activity (%)
Description: as §1, §2, §3, §4

[24] = biological target: PKCa (Homo sapiens, UniProt P17252); details: PKCa (Entrez PRKCA), read-out: Residual activity (%)
Description: as §1, §2, §3, §4

[25] = biological target: PKCγ (Homo sapiens, UniProt P05129); details: read-out: Residual activity (%)
Description: as §1, §2, §3, §4

[26] = biological target: PRAK (Homo sapiens, UniProt Q8IW41); details: PRAK (Entrez MAPKAPK5), read-out: Residual activity (%)
Chain of PRAK (Q8IW41 whole entry): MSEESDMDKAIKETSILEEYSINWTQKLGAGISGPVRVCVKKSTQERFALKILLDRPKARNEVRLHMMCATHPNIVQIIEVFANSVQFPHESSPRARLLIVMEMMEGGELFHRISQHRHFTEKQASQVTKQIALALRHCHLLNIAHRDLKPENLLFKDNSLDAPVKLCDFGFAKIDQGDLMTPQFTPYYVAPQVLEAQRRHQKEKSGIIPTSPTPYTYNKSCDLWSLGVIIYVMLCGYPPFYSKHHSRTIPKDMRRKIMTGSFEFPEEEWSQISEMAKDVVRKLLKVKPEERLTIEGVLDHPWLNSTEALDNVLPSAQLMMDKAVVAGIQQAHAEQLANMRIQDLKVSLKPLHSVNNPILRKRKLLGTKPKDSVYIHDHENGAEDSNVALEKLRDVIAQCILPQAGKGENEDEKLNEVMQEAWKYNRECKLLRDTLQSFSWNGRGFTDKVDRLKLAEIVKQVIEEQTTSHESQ
Description: as §1, §2, §3, §4

[27] = biological target: SGK1 (Homo sapiens, UniProt O00141); details: SGK1 (Entrez SGK1), read-out: Residual activity (%)
Description: as §1, §2, §3, §4

[28] = biological target: STK33 (Homo sapiens, UniProt Q9BYT3); details: STK33 (Entrez STK33), read-out: Residual activity (%)
Description: as §1, §2, §3, §4

[29] = biological target: SYK (Homo sapiens, UniProt P43405); details: SYK (Entrez SYK), read-out: Residual activity (%)
Description: as §1, §2, §3, §4

[30] = biological target: TSSK1 (Homo sapiens, UniProt Q9BXA7); details: TSSK1 (Entrez TSSK1B), read-out: Residual activity (%)
Description: as §1, §2, §3, §4

[31] = biological target: WNK1 (Homo sapiens, UniProt Q9H4A3); details: WNK1 (Entrez WNK1), read-out: Residual activity (%)
Description: as §1, §2, §3, §4

Structure (SMILES): COc1ccc(Nc2ncnc3c2ccn3-c2ccc(C)c(C)c2)cc1Cl [compound 36]
- remaining activity at 1 µM [1]: 96%
- remaining activity at 1 µM [2]: 76%
- remaining activity at 1 µM [3]: 126%
- remaining activity at 1 µM [4]: 99%
- remaining activity at 1 µM [5]: 62%
- remaining activity at 1 µM [6]: 95%
- remaining activity at 1 µM [7]: 95%
- remaining activity at 1 µM [8]: 85%
- remaining activity at 1 µM [9]: 106%
- remaining activity at 1 µM [10]: 89%
- remaining activity at 1 µM [11]: 101%
- remaining activity at 1 µM [12]: 113%
- remaining activity at 1 µM [13]: 76%
- remaining activity at 1 µM [14]: 115%
- remaining activity at 1 µM [15]: 107%
- remaining activity at 1 µM [16]: 112%
- remaining activity at 1 µM [17]: 82%
- remaining activity at 1 µM [18]: 87%
- remaining activity at 1 µM [19]: 96%
- remaining activity at 1 µM [20]: 103%
- remaining activity at 1 µM [21]: 99%
- remaining activity at 1 µM [22]: 80%
- remaining activity at 1 µM [23]: 103%
- remaining activity at 1 µM [24]: 96%
- remaining activity at 1 µM [25]: 107%
- remaining activity at 1 µM [26]: 90%
- remaining activity at 1 µM [27]: 97%
- remaining activity at 1 µM [28]: 93%
- remaining activity at 1 µM [29]: 97%
- remaining activity at 1 µM [30]: 98%
- remaining activity at 1 µM [31]: 105%
